# Test: pKa value (acid dissociation index) of compound (A)
row,pKa,SMILES
1,2.84,"Clc1cccnc1 [Example A3, 3-chloropyridine]"
2,6.6,"Cc1cccc(C)n1 [Example A5, 2,6-lutidine]"
3,7.48,"Cc1cc(C)nc(C)c1 [Example A6, 2,4,6-trimethylpyridine]"
4,8.35,"CCCCCCCCN(CCCCCCCC)CCCCCCCC [Example A7, trioctylamine]"

# — patent US11845828B2, “Polymerizable composition for optical material, optical material, and producing method thereof” (Mitsui Chemicals, Inc., priority 2016, dated 2023)
